Measured values reported in article PMC9649612, “Molecular docking and biochemical validation of (-)-syringaresinol-4-O-β-D-apiofuranosyl-(1→2)-β-D-glucopyranoside binding to an allosteric site in monoamine transporters” (Frontiers in Pharmacology, 2022).

Tests used:
[1] = target: T1, hSERT D328A (S2 site mutant) (Homo sapiens, UniProt P31645, D328A); assay: APP+ transport in HeLa cells expressing hSERT mutant D328A; format: cell-based; details: 2 μM APP+ 5 min, intact HeLa cells, read-out: SAG IC50 for transport
T1 construct: expressed in transfected cells; host or cells: HeLa (ATCC CCL-2), transient, pcDNA3.1
Procedure: (§1) The mutants used for this study were constructed in the WT background carried by the expression plasmids for hSERT, hDAT, or hNET under the control of CMV promotor in pcDNA3.1 vector, respectively. All mutants were generated using the Mut Express II Fast Mutagenesis Kit (Vazyme) and confirmed by full-length DNA sequencing.
(§2) HeLa cells were cultured in Dulbecco’s Modified Eagle’s Medium supplemented with 10% fetal bovine serum, 100 units/ml penicillin, and 100 μg/ml streptomycin at 37°C in a humidified 5% CO2 incubator. Cells were plated in a 6-well culture plate and grown overnight. Cells at ∼70% confluence were transfected with hSERT, hDAT, or hNET cDNA in pcDNA3.1 by lipofectamine 2000. […] After grown for additional 12–16 h, the cells were assayed for APP^+ or ASP^+ fluorescence image acquisition.
(§3) The cells expressing WT or mutants of hSERT, hDAT, or hNET were wet mounted on polylysine coated glass slides in 12-well plates and applied for the indicated treatments. […] The extent of APP^+ accumulated in the cells was determined by confocal imaging analysis. ASP^+ binding to SERT in the cell membrane was measured with digitonin-permeabilized cells ([Li M. et al., 2022a]). […] After removing excess ASP^+ by rapid washing three times, ASP^+ binding was determined by confocal imaging analysis.
(§4) Images were analyzed using Zen Blue software. […]

[2] = target: T2, hSERT P499G (S2 site mutant) (Homo sapiens, UniProt P31645, P499G); assay: APP+ transport in HeLa cells expressing hSERT mutant P499G; format: cell-based; details: 2 μM APP+ 5 min, intact HeLa cells, read-out: SAG IC50 for transport
T2 construct: expressed in transfected cells; host or cells: HeLa (ATCC CCL-2), transient, pcDNA3.1
Procedure: as §1, §2, §3, §4

[3] = target: T3, hNET T474Q (S2 site mutant) (Homo sapiens, UniProt P23975, T474Q); assay: APP+ transport in HeLa cells expressing hNET mutant T474Q; format: cell-based
T3 construct: expressed in transfected cells; host or cells: HeLa
T3 sequence (P23975 whole entry T474Q): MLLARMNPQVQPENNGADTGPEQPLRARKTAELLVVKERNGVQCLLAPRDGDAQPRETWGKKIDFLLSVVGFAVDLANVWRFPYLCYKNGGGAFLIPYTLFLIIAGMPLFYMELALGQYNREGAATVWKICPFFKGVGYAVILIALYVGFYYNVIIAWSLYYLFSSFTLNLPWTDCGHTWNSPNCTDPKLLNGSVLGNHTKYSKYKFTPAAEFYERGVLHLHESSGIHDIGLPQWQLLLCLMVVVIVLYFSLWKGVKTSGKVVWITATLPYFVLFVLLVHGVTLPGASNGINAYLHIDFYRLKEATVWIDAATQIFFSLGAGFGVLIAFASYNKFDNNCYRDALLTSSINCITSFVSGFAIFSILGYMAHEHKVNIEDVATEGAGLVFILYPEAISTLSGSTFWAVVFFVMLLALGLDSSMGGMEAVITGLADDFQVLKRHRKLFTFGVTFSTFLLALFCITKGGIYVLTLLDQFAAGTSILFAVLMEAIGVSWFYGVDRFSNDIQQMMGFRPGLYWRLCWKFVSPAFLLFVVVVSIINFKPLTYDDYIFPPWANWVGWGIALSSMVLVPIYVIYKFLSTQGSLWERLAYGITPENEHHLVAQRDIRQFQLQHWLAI
Procedure: as §1
(§5) HeLa cells were cultured in Dulbecco’s Modified Eagle’s Medium supplemented with 10% fetal bovine serum, 100 units/ml penicillin, and 100 μg/ml streptomycin at 37°C in a humidified 5% CO2 incubator. Cells were plated in a 6-well culture plate and grown overnight. Cells at ∼70% confluence were transfected with hSERT, hDAT, or hNET cDNA in pcDNA3.1 by lipofectamine 2000. Transfected cells were incubated for 24 h at 37°C with 5% CO2 and then transferred into a 12-well plate placed with polylysine coated slides. After grown for additional 12–16 h, the cells were assayed for APP^+ or ASP^+ fluorescence image acquisition.
(§6) The cells expressing WT or mutants of hSERT, hDAT, or hNET were wet mounted on polylysine coated glass slides in 12-well plates and applied for the indicated treatments. In brief, the cells were washed twice with 500 μl KRH buffer containing 20 mM HEPES, pH 7.4, 120 mM NaCl, 1.3 mM KCl, 2.2 mM CaCl2, 1.2 mM MgSO4, and 0.1% (w/v) glucose. […] Excess APP^+ was then removed by rapid washing three times with 500 μl KRH buffer. The extent of APP^+ accumulated in the cells was determined by confocal imaging analysis. ASP^+ binding to SERT in the cell membrane was measured with digitonin-permeabilized cells ([Li M. et al., 2022a]). […] After removing excess ASP^+ by rapid washing three times, ASP^+ binding was determined by confocal imaging analysis.
(§7) Images were analyzed using Zen Blue software.
(§8) Nonlinear regression fits of experimental and calculated data were performed with Origin (Origin Lab). The statistical analysis given was from multiple experiments. Data with error bars in the figures represent the mean ± SD for at least 10 measurements per condition in one experiment or the mean ± SEM from at least three experiments as indicated, respectively. […]

[4] = target: T4, hDAT W562A (S2 site mutant) (Homo sapiens, UniProt Q01959, W562A); assay: APP+ transport in HeLa cells expressing hDAT mutant W562A; format: cell-based
T4 construct: expressed in transfected cells; host or cells: HeLa
T4 sequence (Q01959 whole entry W562A): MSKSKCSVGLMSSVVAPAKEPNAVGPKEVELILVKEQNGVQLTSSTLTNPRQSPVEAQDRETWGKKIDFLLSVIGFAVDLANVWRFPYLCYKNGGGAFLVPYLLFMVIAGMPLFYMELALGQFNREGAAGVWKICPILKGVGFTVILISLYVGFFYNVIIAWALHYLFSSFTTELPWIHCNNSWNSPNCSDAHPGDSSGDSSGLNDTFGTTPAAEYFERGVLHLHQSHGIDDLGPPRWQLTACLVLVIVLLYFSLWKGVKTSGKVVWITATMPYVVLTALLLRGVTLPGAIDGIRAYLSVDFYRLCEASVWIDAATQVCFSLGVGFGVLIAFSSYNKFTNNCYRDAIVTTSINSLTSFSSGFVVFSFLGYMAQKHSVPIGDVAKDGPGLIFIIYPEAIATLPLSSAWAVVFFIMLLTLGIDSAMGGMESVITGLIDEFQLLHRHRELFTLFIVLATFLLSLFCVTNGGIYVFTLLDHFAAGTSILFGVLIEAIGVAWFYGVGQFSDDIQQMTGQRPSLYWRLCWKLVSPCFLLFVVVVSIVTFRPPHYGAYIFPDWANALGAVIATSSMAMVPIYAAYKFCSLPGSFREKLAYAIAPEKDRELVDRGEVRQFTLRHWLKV
Procedure: as §1, §2, §3, §4

WT-hSERT [5] = target: T5, WT-hSERT (Homo sapiens, UniProt P31645); assay: APP+ transport (uptake) in HeLa cells expressing WT-hSERT; format: cell-based; details: 2 μM APP+ 5 min, SAG added 5 min prior, intact HeLa cells
T5 construct: expressed in transfected cells; host or cells: HeLa (ATCC CCL-2), transient, pcDNA3.1
Procedure: as §5, §3, §7
(§9) Nonlinear regression fits of experimental and calculated data were performed with Origin (Origin Lab). […]

[6] = target: T6, hDAT F320A (S2 site mutant) (Homo sapiens, UniProt Q01959, F320A); assay: APP+ transport in HeLa cells expressing hDAT mutant F320A; format: cell-based
T6 construct: expressed in transfected cells; host or cells: HeLa
T6 sequence (Q01959 whole entry F320A): as the sequence (Q01959 whole entry W562A) above, with F320A, A562W counted along it
Procedure: as §1, §2, §3, §4

[7] = target: T7, hSERT S438T (S1 site mutant) (Homo sapiens, UniProt P31645, S438T); assay: APP+ transport in HeLa cells expressing hSERT mutant S438T; format: cell-based; details: 2 μM APP+ 5 min, intact HeLa cells, read-out: SAG IC50 for transport
T7 construct: expressed in transfected cells; host or cells: HeLa
Procedure: as §1, §2, §3, §4

[8] = target: T8, hSERT Q111N (S2 site mutant) (Homo sapiens, UniProt P31645, Q111N); assay: APP+ transport in HeLa cells expressing hSERT mutant Q111N; format: cell-based; details: 2 μM APP+ 5 min, intact HeLa cells, read-out: SAG IC50 for transport
T8 construct: expressed in transfected cells; host or cells: HeLa (ATCC CCL-2), transient, pcDNA3.1
Procedure: as §1, §2, §3, §4

[9] = target: T9, hDAT H477Q (S2 site mutant) (Homo sapiens, UniProt Q01959, H477Q); assay: APP+ transport in HeLa cells expressing hDAT mutant H477Q; format: cell-based; details: intact HeLa cells, read-out: SAG IC50
T9 construct: expressed in transfected cells; host or cells: HeLa
T9 sequence (Q01959 whole entry H477Q): as the sequence (Q01959 whole entry W562A) above, with H477Q, A562W counted along it
Procedure: as §1, §2, §3, §4

[10] = target: T10, hSERT P561G (S2 site mutant) (Homo sapiens, UniProt P31645, P561G); assay: ASP+ binding in digitonin-permeabilized HeLa cells expressing hSERT P561G; details: 10 μM ASP+, read-out: SAG IC50 for binding
T10 construct: expressed in transfected cells; host or cells: HeLa (ATCC CCL-2), transient, pcDNA3.1
Procedure: as §1, §2, §3, §4

WT-hDAT = target: T11, WT-hDAT (Homo sapiens, UniProt Q01959); assay: APP+ transport (uptake) in HeLa cells expressing WT-hDAT; format: cell-based; details: WT hDAT; APP+ transport, intact HeLa cells; read-out: SAG IC50
T11 construct: expressed in transfected cells; host or cells: HeLa
T11 sequence (Q01959 whole entry): as the sequence (Q01959 whole entry W562A) above, with A562W counted along it
Procedure: as §5, §3, §7, §9

[11] = target: T12, hNET K541G (S2 site mutant) (Homo sapiens, UniProt P23975, K541G); assay: APP+ transport in HeLa cells expressing hNET mutant K541G; format: cell-based; details: intact HeLa cells, read-out: SAG IC50
T12 construct: expressed in transfected cells; host or cells: HeLa
T12 sequence (P23975 whole entry K541G): as the sequence (P23975 whole entry T474Q) above, with Q474T, K541G counted along it
Procedure: as §1, §2, §3, §4

[12] = target: T13, hDAT A480G (S2 site mutant) (Homo sapiens, UniProt Q01959, A480G); assay: APP+ transport in HeLa cells expressing hDAT mutant A480G; format: cell-based; details: intact HeLa cells, read-out: SAG IC50
T13 construct: expressed in transfected cells; host or cells: HeLa
T13 sequence (Q01959 whole entry A480G): as the sequence (Q01959 whole entry W562A) above, with A480G, A562W counted along it
Procedure: as §1, §2, §3, §4

[13] = target: T14, hNET A477G (S2 site mutant) (Homo sapiens, UniProt P23975, A477G); assay: APP+ transport in HeLa cells expressing hNET mutant A477G; format: cell-based; details: intact HeLa cells, read-out: SAG IC50
T14 construct: expressed in transfected cells; host or cells: HeLa
T14 sequence (P23975 whole entry A477G): as the sequence (P23975 whole entry T474Q) above, with Q474T, A477G counted along it
Procedure: as §1, §2, §3, §4

[14] = target: T15, hNET D473N (S2 site mutant) (Homo sapiens, UniProt P23975, D473N); assay: APP+ transport in HeLa cells expressing hNET mutant D473N; format: cell-based
T15 construct: expressed in transfected cells; host or cells: HeLa
T15 sequence (P23975 whole entry D473N): as the sequence (P23975 whole entry T474Q) above, with D473N, Q474T counted along it
Procedure: as §1, §5, §6, §7, §8

[15] = target: T16, hSERT Y95F (S1 site mutant) (Homo sapiens, UniProt P31645, Y95F); assay: APP+ transport in HeLa cells expressing hSERT mutant Y95F; format: cell-based
T16 construct: expressed in transfected cells; host or cells: HeLa (ATCC CCL-2), transient, pcDNA3.1
Procedure: as §1, §2, §3, §4

[16] = target: T17, hSERT S559A (S2 site mutant) (Homo sapiens, UniProt P31645, S559A); assay: ASP+ binding in digitonin-permeabilized HeLa cells expressing hSERT S559A; details: 10 μM ASP+, read-out: SAG IC50 for binding
T17 construct: expressed in transfected cells; host or cells: HeLa (ATCC CCL-2), transient, pcDNA3.1
Procedure: as §1, §2, §3, §4

[17] = target: T18, hSERT T497A (S2 site mutant) (Homo sapiens, UniProt P31645, T497A); assay: ASP+ binding in digitonin-permeabilized HeLa cells expressing hSERT T497A; details: 10 μM ASP+, read-out: SAG IC50 for binding
T18 construct: expressed in transfected cells; host or cells: HeLa (ATCC CCL-2), transient, pcDNA3.1
Procedure: as §1, §2, §3, §4

WT-hSERT [18] = target: T5, WT-hSERT; assay: ASP+ binding in digitonin-permeabilized HeLa cells expressing WT-hSERT; details: 10 μM ASP+ 5 min, 25 μg/ml digitonin-permeabilized HeLa cells, read-out: SAG IC50 for binding
Procedure: as §5, §3, §7, §9

## (-)-Syringaresinol-4-O-β-D-apiofuranosyl-(1→2)-β-D-glucopyranoside [SAG]
[1]
  IC50: 113 ± 5 µM
[2]
  IC50: 88.1 ± 2.8 µM
[3]; hNET T474Q vs WT-hNET
  Change in SAG inhibition potency compared to WT: little change
  Decrease in SAG inhibition potency compared with WT: less than 3 folds
[3]; hNET T474Q, intact HeLa cells, read-out: SAG IC50
  IC50: 49.3 ± 7.9 µM
[4]; hDAT W562A vs WT-hDAT
  Increase in SAG IC50 compared with WT: more than 30 fold
[4]; hDAT W562A, intact HeLa cells, read-out: SAG IC50
  IC50: > 1000 µM
WT-hSERT [5]
  IC50: 2.54 ± 0.13 µM
[6]; hDAT F320A vs WT-hDAT
  Decrease in SAG IC50 compared with WT: ~50%
[6]; hDAT F320A, intact HeLa cells, read-out: SAG IC50
  IC50: 16.8 ± 0.7 µM
[7]
  IC50: 10.3 ± 0.49 µM
[8]
  IC50: 19.1 ± 2.2 µM
[9]
  IC50: 72.4 ± 4.8 µM
[10]
  IC50: > 1000 µM
WT-hDAT
  IC50: 31.9 ± 2.8 µM
[11]
  IC50: 79.8 ± 3.3 µM
[12]
  IC50: 239 ± 14 µM
[13]
  IC50: > 1000 µM
[14]; hNET D473N vs WT-hNET
  Change in SAG inhibition potency compared to WT: little change
  Decrease in SAG inhibition potency compared with WT: less than 3 folds
[14]; hNET D473N, intact HeLa cells, read-out: SAG IC50
  IC50: 42.7 ± 4.7 µM
[15]; hSERT Tyr95 to Phe (S1) vs WT-hSERT, APP+ transport
  Effect of mutation on SAG inhibition potency: little effect
[15]; hSERT Y95F (S1), 2 μM APP+ 5 min, intact HeLa cells, read-out: SAG IC50 for transport
  IC50: 4.45 ± 0.17 µM
[16]
  IC50: 126 ± 8.1 µM
[17]
  IC50: 152 ± 12 µM
WT-hSERT [18]
  IC50: 7.88 ± 0.35 µM
